From ChEMBL document CHEMBL1129131, “Identification and structure-activity relationship studies of osthol, a cytotoxic principle from Cnidium monnieri” (Bioorg Med Chem Lett, 1996)
Converted amounts (≈) assume the structure as drawn.

How the values were obtained:
Assay type in all cases: functional, cell-based
V79 = assay: Cytotoxicity against V-79 cells; conditions: Cricetulus griseus
KB = assay: Compound was tested for its cytotoxicity against KB cells; conditions: Homo sapiens
P388 = assay: Compound was tested for its cytotoxicity against P-388 cells; conditions: Mus musculus
MM46 = assay: Compound was tested for its cytotoxicity against MM46 cells; conditions: Mus musculus

SMILES	IC50 (V79) [µM]	other results
COc1ccc2c(c1CCC(C)C)OC(=O)CC2	> 100	
COc1ccc2ccc(=O)oc2c1CCC(C)(C)O	> 100	
CCCOc1ccc2ccc(=O)oc2c1CCC(C)C	5.6	
CC(C)CCc1c(O)ccc2c1OC(=O)CC2	> 100	
CCCCOc1ccc2ccc(=O)oc2c1CCC(C)C	16	
COc1ccc2ccc(=O)oc2c1CC(O)C(C)(C)O (configuration not stated)	> 100	
CC(C)CCc1c(O)ccc2ccc(=O)oc12	40	
COc1ccc2ccc(=O)oc2c1CC(Br)C(C)(C)Br (configuration not stated)	60	
CCCC(=O)c1ccc2ccc(=O)oc2c1CCC(C)C	58	
CC(C)CCc1cccc2ccc(=O)oc12	60	
CC(=O)c1ccc2ccc(=O)oc2c1CCC(C)C	60	
COc1ccc2ccc(=O)oc2c1CC1OC1(C)C (configuration not stated)	> 100	
CCCCCCCOc1ccc2ccc(=O)oc2c1CCC(C)C	17	
COc1ccc2ccc(=O)oc2c1CCC(C)C	58	
CCOc1ccc2ccc(=O)oc2c1CCC(C)C	5.8	
O=c1ccc2ccccc2o1 [COUMARIN]	> 100	
COc1ccc2ccc(=O)oc2c1 [HERNIARIN]	> 100	
COc1ccc2ccc(=O)oc2c1CC=C(C)C [OSTHOLE]	57	IC50 (KB): 12 µg/mL (≈ 49.1 µM); IC50 (P388): 3.1 µg/mL (≈ 12.7 µM); IC50 (MM46): 8.6 µg/mL (≈ 35.2 µM)
O=c1ccc2ccc(O)cc2o1 [UMBELLIFERONE]	58	
